According to patent publication US11453647B2, “Benzimidazole derivatives as adenosine receptor antagonists” (Merck Patent GmbH, priority 2017, dated 2022):

Experiments:
Format in all cases: cell-based
human A1 receptor = molecular target: T1, human A1 receptor (Homo sapiens, UniProt P30542); assay: functional cAMP (HTRF) assay, recombinant CHO cells expressing human A1 receptor, forskolin, agonist CPA
T1 construct: expressed in transfected cells; host or cells: CHO
T1 sequence (P30542 1-326): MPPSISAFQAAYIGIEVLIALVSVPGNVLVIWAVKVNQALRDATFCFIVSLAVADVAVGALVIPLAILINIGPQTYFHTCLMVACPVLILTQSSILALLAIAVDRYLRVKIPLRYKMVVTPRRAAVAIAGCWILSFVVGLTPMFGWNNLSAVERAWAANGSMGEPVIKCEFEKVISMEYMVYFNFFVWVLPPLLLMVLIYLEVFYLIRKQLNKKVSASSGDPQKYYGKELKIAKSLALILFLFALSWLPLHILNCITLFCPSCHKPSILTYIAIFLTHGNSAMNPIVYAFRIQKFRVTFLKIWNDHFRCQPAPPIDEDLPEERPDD
How it was run: (§1)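 Recombinant CHO lines carrying either receptor receive forskolin, compound and the matching agonist, CPA or IB-MECA. After 30 min, HTRF reagents are added and cAMP is quantified. Values are normalized to inhibitor and neutral DMSO controls, then fitted.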

human A3 receptor = molecular target: T2, human A3 receptor (Homo sapiens, UniProt P0DMS8); assay: functional cAMP (HTRF) assay, recombinant CHO cells expressing human A3 receptor, forskolin, agonist IB-MECA
T2 construct: expressed in transfected cells; host or cells: CHO
T2 sequence (P0DMS8 1-318): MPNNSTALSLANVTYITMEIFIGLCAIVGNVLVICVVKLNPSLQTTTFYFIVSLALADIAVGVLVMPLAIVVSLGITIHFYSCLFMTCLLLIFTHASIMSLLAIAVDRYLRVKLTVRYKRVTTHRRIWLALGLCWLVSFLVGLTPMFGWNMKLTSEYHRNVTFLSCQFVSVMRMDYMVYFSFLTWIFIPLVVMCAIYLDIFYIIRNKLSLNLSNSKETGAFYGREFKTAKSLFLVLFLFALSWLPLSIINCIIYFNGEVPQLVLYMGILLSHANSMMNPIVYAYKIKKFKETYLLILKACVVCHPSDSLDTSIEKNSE
How it was run: as §1

human A2A receptor = molecular target: T3, human A2A receptor (Homo sapiens, UniProt P29274); assay: functional cAMP (HTRF) assay, recombinant HEK293 cells expressing human A2A receptor, agonist NECA
T3 construct: expressed in transfected cells; host or cells: HEK293
T3 sequence (P29274 whole entry): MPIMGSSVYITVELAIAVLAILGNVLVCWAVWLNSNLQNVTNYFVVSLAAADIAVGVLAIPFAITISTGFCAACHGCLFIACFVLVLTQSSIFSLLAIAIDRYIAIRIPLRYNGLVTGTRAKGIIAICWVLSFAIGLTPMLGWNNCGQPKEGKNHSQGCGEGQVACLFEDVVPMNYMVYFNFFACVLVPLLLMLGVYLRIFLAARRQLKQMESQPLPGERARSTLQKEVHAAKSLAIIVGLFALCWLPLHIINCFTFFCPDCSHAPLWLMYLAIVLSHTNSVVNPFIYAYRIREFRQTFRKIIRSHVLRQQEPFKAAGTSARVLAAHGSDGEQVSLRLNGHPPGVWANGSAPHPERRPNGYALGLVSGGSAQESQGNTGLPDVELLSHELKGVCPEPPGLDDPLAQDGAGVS

A2B receptors = molecular target: T4, A2B receptors (Homo sapiens, UniProt P29275); assay: functional cAMP (HTRF) assay, recombinant HEK293 cells expressing human A2B receptor, agonist NECA; parameters: expressed in transfected cells; host or cells: HEK293
T4 sequence (P29275 1-332): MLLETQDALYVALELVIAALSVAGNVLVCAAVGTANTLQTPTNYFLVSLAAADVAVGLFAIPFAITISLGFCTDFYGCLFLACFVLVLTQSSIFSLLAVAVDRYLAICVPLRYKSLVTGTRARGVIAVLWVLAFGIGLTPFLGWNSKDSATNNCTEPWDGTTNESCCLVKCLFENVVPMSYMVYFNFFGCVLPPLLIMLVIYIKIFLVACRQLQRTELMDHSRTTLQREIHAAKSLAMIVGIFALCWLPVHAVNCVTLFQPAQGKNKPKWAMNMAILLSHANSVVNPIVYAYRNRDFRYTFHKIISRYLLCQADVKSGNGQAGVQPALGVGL

Structure (SMILES)	IC50 (human A1 receptor) [nM]	IC50 (human A3 receptor) [nM]	IC50 (human A2A receptor) [nM]	IC50 (A2B receptors) [nM]
COc1ccc(-c2cnn(C)c2)c2nc(NC(=O)c3cnc(C)s3)[nH]c12 [compound 165, N-[7-methoxy-4-(1-methyl-1H-pyrazol-4-yl)-1H-1,3-benzodiazol-2-yl]-2-methyl-1,3-thiazole-5-carboxamide]	< 1000	< 10	< 10	< 1000
COc1ccc(-c2cnn(C)c2)c2nc(NC(=O)c3ccc(CN4CCN(C)CC4)cc3)[nH]c12 [compound 168, N-[7-methoxy-4-(1-methyl-1H-pyrazol-4-yl)-1H-1,3-benzodiazol-2-yl]-4-[(4-methylpiperazin-1-yl)methyl]benzamide]	> 1000	< 1000	< 10	> 1000
COc1ccc(C2CCOCC2)c2nc(NC(=O)c3cnn(C)c3)[nH]c12 [compound 224, N-[7-methoxy-4-(oxan-4-yl)-1H-1,3-benzodiazol-2-yl]-1-methyl-1H-pyrazole-4-carboxamide]	> 1000	< 1000	< 10	< 100
COCCn1cc(C(=O)Nc2nc3c(C4CCOCC4)ccc(OC)c3[nH]2)cn1 [compound 225, N-[7-methoxy-4-(oxan-4-yl)-1H-1,3-benzodiazol-2-yl]-1-(2-methoxyethyl)-1H-pyrazole-4-carboxamide]	> 1000	> 1000	< 10	< 100
COc1ccc(-c2ccccc2F)c2nc(NC(=O)c3ccc(C(=O)N(C)C)cc3)[nH]c12 [compound 242, N4-[4-(2-fluorophenyl)-7-methoxy-1H-1,3-benzodiazol-2-yl]-N1,N1-dimethylbenzene-1,4-dicarboxamide]	< 1000	< 1000	< 10	< 10
COc1ccc(-c2cnn(C)c2)c2nc(NC(=O)c3ccc(N4C(=O)CCC4=O)cc3)[nH]c12 [compound 248, 4-(2,5-dioxopyrrolidin-1-yl)-N-[7-methoxy-4-(1-methyl-1H-pyrazol-4-yl)-1H-1,3-benzodiazol-2-yl]benzamide]	> 1000	> 1000	< 10	< 100
COc1ccc(-c2ccccc2)c2nc(NC(=O)c3c[nH]cn3)[nH]c12 [compound 253, N-(7-methoxy-4-phenyl-1H-1,3-benzodiazol-2-yl)-1H-imidazole-4-carboxamide]	< 1000	< 1000	< 10	< 10
COc1ccc(-c2ccccc2)c2nc(NC(=O)c3c[nH]c(C)n3)[nH]c12 [compound 255, N-(7-methoxy-4-phenyl-1H-1,3-benzodiazol-2-yl)-2-methyl-1H-imidazole-4-carboxamide]	< 1000	< 1000	< 10	< 10
COc1ccc(-c2cccnc2)c2nc(NC(=O)c3ccc(C(=O)N(C)C)cc3)[nH]c12 [compound 259, N4-[7-methoxy-4-(pyridin-3-yl)-1H-1,3-benzodiazol-2-yl]-N1,N1-dimethylbenzene-1,4-dicarboxamide]	< 1000	> 1000	< 10	< 10
COc1ccc(C2=CCOC2)c2nc(NC(=O)c3ccc(C(=O)N(C)C)cc3)[nH]c12 [compound 261, N4-[4-(2,5-dihydrofuran-3-yl)-7-methoxy-1H-1,3-benzodiazol-2-yl]-N1,N1-dimethylbenzene-1,4-dicarboxamide]	> 1000	< 1000	< 10	< 10
COc1cc(F)c(C2=CCOCC2)c2nc(NC(=O)c3ccc(C(=O)N(C)C)cc3)[nH]c12 [compound 262, N4-[4-(3,6-dihydro-2H-pyran-4-yl)-5-fluoro-7-methoxy-1H-1,3-benzodiazol-2-yl]-N1,N1-dimethylbenzene-1,4-dicarboxamide]	> 1000	< 1000	< 10	< 10
COc1cc(F)c(C2=CCOCC2)c2nc(NC(=O)c3cnn(C)c3)[nH]c12 [compound 264, N-[4-(3,6-dihydro-2H-pyran-4-yl)-5-fluoro-7-methoxy-1H-1,3-benzodiazol-2-yl]-1-methyl-1H-pyrazole-4-carboxamide]	> 1000	< 1000	< 10	< 100
COc1ccc(-c2cccnc2)c2[nH]c(NC(=O)c3c[nH]cn3)nc12 [compound 268, N-[4-methoxy-7-(pyridin-3-yl)-1H-1,3-benzodiazol-2-yl]-1H-imidazole-4-carboxamide]	> 1000	> 1000	< 10	< 100
COCCn1cc(C(=O)Nc2nc3c(-c4ccnc5[nH]ccc45)ccc(OC)c3[nH]2)cn1 [compound 278, N-(7-methoxy-4-{1H-pyrrolo[2,3-b]pyridin-4-yl}-1H-1,3-benzodiazol-2-yl)-1-(2-methoxyethyl)-1H-pyrazole-4-carboxamide]	> 1000	< 1000	< 100	< 100

Now from value to compound:

IC50 (human A1 receptor) [nM]	IC50 (human A3 receptor) [nM]	IC50 (human A2A receptor) [nM]	IC50 (A2B receptors) [nM]	Structure (SMILES)
< 1000	> 1000	< 10	< 100	COc1ccc(-c2cccc(F)c2)c2nc(NC(=O)N3CCC(C)(O)CC3)[nH]c12 [compound 217, N-[4-(3-fluorophenyl)-7-methoxy-1H-1,3-benzodiazol-2-yl]-4-hydroxy-4-methylpiperidine-1-carboxamide]
< 1000	> 1000	< 10	< 100	COc1ccc(-c2ccccc2F)c2nc(NC(=O)N3CCC(C)(O)CC3)[nH]c12 [compound 218, N-[4-(2-fluorophenyl)-7-methoxy-1H-1,3-benzodiazol-2-yl]-4-hydroxy-4-methylpiperidine-1-carboxamide]
> 1000	> 1000	< 10	< 100	COc1ccc(-c2cnn(C)c2)c2nc(NC(=O)N3CC[C@H](F)C3)[nH]c12 [compound 221, (3S)-3-fluoro-N-[7-methoxy-4-(1-methyl-1H-pyrazol-4-yl)-1H-1,3-benzodiazol-2-yl]pyrrolidine-1-carboxamide]
< 1000	< 1000	< 10	< 100	COCCOc1cccc(-c2ccc(OC)c3nc(NC(=O)N4CCC(C)(O)CC4)[nH]c23)c1 [compound 236, 4-hydroxy-N-{4-methoxy-7-[3-(2-methoxyethoxy)phenyl]-1H-1,3-benzodiazol-2-yl}-4-methylpiperidine-1-carboxamide]
< 1000	< 1000	< 100	< 100	COc1ccc(-c2cnn(Cc3cccnc3)c2)c2[nH]c(NC(=O)N3CCC(C)(O)CC3)nc12 [compound 237, 4-hydroxy-N-(4-methoxy-7-{1-[(pyridin-3-yl)methyl]-1H-pyrazol-4-yl}-1H-1,3-benzodiazol-2-yl)-4-methylpiperidine-1-carboxamide]
< 1000	< 1000	< 10	< 10	COc1ccc(-c2cccc(F)c2)c2nc(NC(=O)c3ccc(C(=O)N(C)C)cc3)[nH]c12 [compound 240, N4-[4-(3-fluorophenyl)-7-methoxy-1H-1,3-benzodiazol-2-yl]-N1,N1-dimethylbenzene-1,4-dicarboxamide]
< 1000	< 1000	< 10	< 100	COc1ccc(-c2cccc(F)c2)c2[nH]c(NC(=O)c3c[nH]cn3)nc12 [compound 265, N-[7-(3-fluorophenyl)-4-methoxy-1H-1,3-benzodiazol-2-yl]-1H-imidazole-4-carboxamide]
> 1000	< 1000	< 100	< 100	COc1ccc(-c2ccccc2)c2nc(NC(=O)c3cn(C)nc3C)[nH]c12 [compound 269, N-(7-methoxy-4-phenyl-1H-1,3-benzodiazol-2-yl)-1,3-dimethyl-1H-pyrazole-4-carboxamide]
> 1000	> 1000	< 100	< 100	COc1ccc(-c2cccc3[nH]ncc23)c2nc(NC(=O)N3CCC(C)(O)CC3)[nH]c12 [compound 271, 4-hydroxy-N-[4-(1H-indazol-4-yl)-7-methoxy-1H-1,3-benzodiazol-2-yl]-4-methylpiperidine-1-carboxamide]
